Experimental findings from patent US6762181B1, “Aminomethylpyrrolidine derivatives having aromatic substituents” (Daiichi Pharmaceutical Co., Ltd., priority 1999, dated 2004) are described below.

Holding throughout (assay): Antibacterial activity (MIC), Japan Society of Chemotherapy standard method
What all share (assay type): cell-based

One test relates to Pr. Vulgaris O8601. As to the method: (§1) Antibacterial activities of the compounds of the invention were measured in accordance with the standard method specified by the Japan Society of Chemotherapy, with the results shown in the following table as MIC values (μg/ml). In this connection, MIC values of levofloxacin (LVFX), ciprofloxacin (CPFX) and 5-amino-7-[3-(R)-[1-(S)-aminoethyl]pyrrolidin-1-yl]-6-fluoro-1-[2-(S)-fluoro-1-(R)-cyclopropyl]-8-methyl-1,4-dihydro-4-oxoquinoline-3-carboxylic acid (control drug 1) described in WO 9623782 are also shown for the sake of comparison with the MIC values of the compounds of the invention.

The test system of another test is K. pneumoniae TYPE 1. As to the method:
as §1

In a further test the test system is E. coli NIHJ. As to the method:
as §1

The next test has as its system S. aureus 870307. As to the method:
as §1

Another test concerns Ps. aeruginosa 32104. As to the method:
as §1

The next test concerns Ps. aeruginosa 32121. How it is done:
as §1

The subject of the next test is S. epidermidis 56500. As to the method: as §1
Another test deals with X. maltophilia IID 1275. As to the method:
as §1

Another test relates to E. faecalis ATCC 19433. How it is done:
as §1

A further test has as its system Str. pyrogenes G-36. As to the method:
as §1

A further test has as its system Ser. marcescens 10100. How it is done:
as §1

The next test deals with S. aureus FDA 209P. How it is done: as §1
In the next test the test system is S. flexneri 2A 5503. How it is done: as §1
Another test deals with Str. pneumoniae J24. How it is done:
as §1

[1] abbreviates: Proteus vulgaris, read-out: MIC.
The mark [2] stands for this setting: Klebsiella pneumoniae, TYPE1, K. pneumoniae TYPE 1, read-out: MIC.
Where [3] appears, read: Escherichia coli, read-out: MIC.
Setting [4] is: Staphylococcus aureus, 870307, S. aureus 870307, read-out: MIC.
[5] abbreviates: Pseudomonas aeruginosa, 32104, Ps. aeruginosa 32104, read-out: MIC.
[6] abbreviates: Pseudomonas aeruginosa, 32121, Ps. aeruginosa 32121, read-out: MIC.
The mark [7] stands for this setting: Staphylococcus epidermidis, read-out: MIC.
The mark [8] stands for this setting: Stenotrophomonas maltophilia, IID1275, X. maltophilia IID 1275, read-out: MIC.
Where [9] appears, read: Enterococcus faecalis, ATCC19433, E. faecalis ATCC 19433, read-out: MIC.
Where [10] appears, read: Serratia marcescens, 10100, Ser. marcescens 10100, read-out: MIC.
The mark [11] stands for this setting: Staphylococcus aureus, FDA209P, read-out: MIC.
Where [12] appears, read: Shigella flexneri, 2A5503, S. flexneri 2A 5503, read-out: MIC.
[13] abbreviates: Streptococcus pneumoniae, J24, Str. pneumoniae J24, read-out: MIC.

≈ marks a conversion by molar mass, not a printed value. Where two headings read alike, the source gives them in different places.

As usually defined, the MIC is the lowest concentration that inhibits growth of the organism. Take `Nc1c(F)c(N2CC[C@@H](C(N)c3ccccn3)C2)c(F)c2c1c(=O)c(C(=O)O)cn2[C@@H]1C[C@@H]1F` (stereo partly shown) [Example 16]: the MIC against Pr. Vulgaris O8601 is 0.025 µg/mL (≈ 0.0528 µM); against K. pneumoniae TYPE 1 (K. pneumoniae TYPE 1) it was 0.025 µg/mL (≈ 0.0528 µM); in the test on E. coli NIHJ it was “≦0.003 μg/ml”; in the test with S. aureus 870307 (S. aureus 870307) it was 0.006 µg/mL (≈ 0.0127 µM); in the test with Ps. aeruginosa 32104 (Ps. aeruginosa 32104), 0.2 µg/mL (≈ 0.422 µM); in the test with Ps. aeruginosa 32121 (Ps. aeruginosa 32121), 0.05 µg/mL (≈ 0.106 µM). Besides, the MIC entry against S. epidermidis 56500 was “≦0.003 μg/ml”; in the test on X. maltophilia IID 1275 (X. maltophilia IID 1275), 0.1 µg/mL (≈ 0.211 µM); in the test with E. faecalis ATCC 19433 (E. faecalis ATCC 19433), 0.013 µg/mL (≈ 0.0275 µM); against Str. pyrogenes G-36 it was “≦0.003 μg/ml”; against Ser. marcescens 10100 (Ser. marcescens 10100), 0.1 µg/mL (≈ 0.211 µM); with S. aureus FDA 209P, “≦0.003 μg/ml”. In addition, the MIC entry against S. flexneri 2A 5503 (S. flexneri 2A 5503) and against Str. pneumoniae J24 (Str. pneumoniae J24) was “≦0.003 μg/ml” throughout.

`Cc1c(N2CC[C@@H](C(N)c3ccccn3)C2)c(F)c(N)c2c(=O)c(C(=O)O)cn([C@@H]3C[C@@H]3F)c12` (stereo partly drawn) [Example 17, 5-Amino-7-{3-(R)-[1-amino-1-(2-pyridyl)methyl]-1-pyrrolidiny}-6-fluoro-1-[(1R, 2S)-2-fluorocyclopropyl)-1,4-dihydro-8-methyl-4-oxoquinoline-3-carboxylic acid]: the MIC with Pr. Vulgaris O8601 was 0.05 µg/mL (≈ 0.106 µM); against K. pneumoniae TYPE 1 (K. pneumoniae TYPE 1) it was 0.05 µg/mL (≈ 0.106 µM); against E. coli NIHJ, “≦0.003 μg/ml”; in the test on S. aureus 870307 (S. aureus 870307) it was 0.013 µg/mL (≈ 0.0277 µM); in the test on Ps. aeruginosa 32104 (Ps. aeruginosa 32104) it was 0.2 µg/mL (≈ 0.426 µM); in the test on Ps. aeruginosa 32121 (Ps. aeruginosa 32121), 0.1 µg/mL (≈ 0.213 µM). For the same compound, the MIC entry is “≦0.003 μg/ml” against S. epidermidis 56500; 0.05 µg/mL (≈ 0.106 µM) in the test with X. maltophilia IID 1275 (X. maltophilia IID 1275); 0.025 µg/mL (≈ 0.0532 µM) in the test on E. faecalis ATCC 19433 (E. faecalis ATCC 19433); “≦0.003 μg/ml” with Str. pyrogenes G-36; 0.1 µg/mL (≈ 0.213 µM) against Ser. marcescens 10100 (Ser. marcescens 10100); “≦0.003 μg/ml” with S. aureus FDA 209P. The MIC is 6 ng/mL (≈ 0.0128 µM) against S. flexneri 2A 5503 (S. flexneri 2A 5503) and “≦0.003 μg/ml” against Str. pneumoniae J24 (Str. pneumoniae J24).

Turning to `Nc1c(F)c(N2CC[C@@H](C(N)c3cccnc3)C2)c(F)c2c1c(=O)c(C(=O)O)cn2[C@@H]1C[C@@H]1F` (stereo partly drawn) [Example 19, 5-Amino-7-(3-(R)-[1-amino-1-(3-pyridyl)methyl]-1-pyrrolidinyl]-6,8-difluoro-1-[(1R, 2S)-2-fluorocyclopropyl]-1,4-dihydro-4-oxoquinoline-3-carboxylic acid], the MIC is 0.025 µg/mL (≈ 0.0528 µM) in the test on Pr. Vulgaris O8601 (setting [1]); 0.025 µg/mL (≈ 0.0528 µM) in the test on K. pneumoniae TYPE 1 (setting [2]); no more than 3 ng/mL in the test with E. coli NIHJ (setting [3]); 0.025 µg/mL (≈ 0.0528 µM) in the test on S. aureus 870307 (setting [4]); 0.2 µg/mL (≈ 0.422 µM) in the test on Ps. aeruginosa 32104 (setting [5]); 0.05 µg/mL (≈ 0.106 µM) with Ps. aeruginosa 32121 (setting [6]). The MIC in the test on S. epidermidis 56500 (setting [7]) is no more than 0.003 µg/mL; in the test with X. maltophilia IID 1275 (setting [8]), 0.1 µg/mL (≈ 0.211 µM); with E. faecalis ATCC 19433 (setting [9]), 0.025 µg/mL (≈ 0.0528 µM); in the test on Str. pyrogenes G-36 (read-out: MIC), no more than 0.003 µg/mL; with Ser. marcescens 10100 (setting [10]) it was 0.1 µg/mL (≈ 0.211 µM); in the test on S. aureus FDA 209P (setting [11]) it was no more than 0.003 µg/mL. Also, the results for the minimum inhibitory concentration (MIC) in the test with S. flexneri 2A 5503 (setting [12]) and with Str. pneumoniae J24 (setting [13]) were no more than 3 ng/mL and no more than 0.003 µg/mL, respectively.

On to `Cc1c(N2CC[C@@H](C(N)c3cccnc3)C2)c(F)c(N)c2c(=O)c(C(=O)O)cn([C@@H]3C[C@@H]3F)c12` (stereo partly drawn) [Example 20, 5-Amino-7-(3-(R)-[1-amino-1-(3-pyridyl)methyl]-1-pyrrolidinyl)-6-fluoro-1-[(1R,2S)-2-fluorocyclopropyl]-1,4-dihydro-8-methyl-4-oxoquinoline-3-carboxylic acid], for which the MIC in the test on Pr. Vulgaris O8601 (setting [1]) was 0.025 µg/mL (≈ 0.0532 µM); in the test with K. pneumoniae TYPE 1 (setting [2]), 0.05 µg/mL (≈ 0.106 µM); in the test on E. coli NIHJ (setting [3]) it was 6 ng/mL (≈ 0.0128 µM); in the test on S. aureus 870307 (setting [4]), 0.05 µg/mL (≈ 0.106 µM); with Ps. aeruginosa 32104 (setting [5]) it was 0.2 µg/mL (≈ 0.426 µM); in the test with Ps. aeruginosa 32121 (setting [6]), 0.05 µg/mL (≈ 0.106 µM). The MIC in the test with S. epidermidis 56500 (setting [7]) is no more than 0.003 µg/mL; with X. maltophilia IID 1275 (setting [8]), 0.2 µg/mL (≈ 0.426 µM); in the test on E. faecalis ATCC 19433 (setting [9]) it was 0.025 µg/mL (≈ 0.0532 µM); in the test with Str. pyrogenes G-36 (read-out: MIC), no more than 0.003 µg/mL; with Ser. marcescens 10100 (setting [10]), 0.1 µg/mL (≈ 0.213 µM); in the test on S. aureus FDA 209P (setting [11]), no more than 0.003 µg/mL. Moreover, the values for the minimum inhibitory concentration (MIC) in the test on S. flexneri 2A 5503 (setting [12]) and in the test with Str. pneumoniae J24 (setting [13]) were 6 ng/mL (≈ 0.0128 µM) and no more than 0.003 µg/mL, respectively.

As for `C[C@H]1COc2c(N3CCN(C)CC3)c(F)cc3c(=O)c(C(=O)O)cn1c23` [LVFX, levofloxacin, reference compound], the MIC was 0.13 µg/mL (≈ 0.36 µM) in the test on Pr. Vulgaris O8601 (setting [1]); 0.1 µg/mL (≈ 0.277 µM) in the test on K. pneumoniae TYPE 1 (setting [2]); 13 ng/mL (≈ 0.036 µM) in the test with E. coli NIHJ (setting [3]); greater than 6.25 µg/mL in the test on S. aureus 870307 (setting [4]); 0.2 µg/mL (≈ 0.553 µM) in the test with Ps. aeruginosa 32104 (setting [5]); 0.1 µg/mL (≈ 0.277 µM) with Ps. aeruginosa 32121 (setting [6]). For the same compound, the MIC in the test on S. epidermidis 56500 (setting [7]) was 0.39 µg/mL (≈ 1.08 µM); in the test with X. maltophilia IID 1275 (setting [8]), 0.39 µg/mL (≈ 1.08 µM); in the test with E. faecalis ATCC 19433 (setting [9]), 0.78 µg/mL (≈ 2.16 µM); in the test with Str. pyrogenes G-36 (read-out: MIC), 0.2 µg/mL (≈ 0.553 µM); in the test on Ser. marcescens 10100 (setting [10]), 0.1 µg/mL (≈ 0.277 µM); in the test on S. aureus FDA 209P (setting [11]) it was 0.2 µg/mL (≈ 0.553 µM). Further, the MIC stood at 25 ng/mL (≈ 0.0692 µM) in the test on S. flexneri 2A 5503 (setting [12]) and 0.78 µg/mL (≈ 2.16 µM) in the test with Str. pneumoniae J24 (setting [13]).
